One assay concerns the target 123I-SAP (Homo sapiens, UniProt P02743). The experiment in a line: Quantitative whole body 123I-SAP scintigraphy in patients during drug infusion. In kind it is in vivo. From the text: This patient, with a modest load of AL amyloid in the spleen and kidneys, had notable blood pool background of tracer in the heart and circulation before administration of the drug.
This patient, with modest load of AL amyloid in the spleen and kidneys, had notable blood pool background of tracer in the heart and circulation before administration of the drug.
Direct evidence for depletion of SAP from amyloid in the organs and for the mechanism of action of (R)-1-[6-(R)-2-Carboxy-pyrrolidin-1-yl]-6-oxo-hexanoyl]pyrrolidine-2-carboxylic acid was obtained by quantitative whole body scintigraphy using ^123I-SAP as a tracer. Each patient received a standard dose of ^123I-SAP 24 h before the (R)-1-[6-(R)-2-Carboxy-pyrrolidin-1-yl]-6-oxo-hexanoyl]pyrrolidine-2-carboxylic acid infusion started and was scanned immediately before treatment to provide a baseline image and values for localisation of tracer to the amyloid deposits. They were then scanned at intervals thereafter, up to the end of the 48 h infusion. (R)-1-[6-(R)-2-Carboxy-pyrrolidin-1-yl]-6-oxo-hexanoyl]pyrrolidine-2-carboxylic acid caused dramatic clearance of tracer from the plasma, exactly paralleling both in the scintigraphic images and in counting of blood samples, the SAP depletion monitored by immunoassay of the serum. […] At the same time there was a marked decrease in the retention of tracer in amyloid deposits elsewhere, exemplified by the spleen and kidneys, in contrast to the usual situation in control untreated amyloidosis patients (Table 2; FIG. 6).
All patients had systemic AL amyloidosis and received a standard intravenous tracer dose of ^123I-SAP at time zero. After whole body quantitative scintigraphic imaging at 24 h, uptake in liver and spleen were taken as 100% for each individual. Intravenous infusion of the drug (R)-1-[6-(R)-2-Carboxy-pyrrolidin-1-yl]-6-oxo-hexanoyl]pyrrolidine-2-carboxylic acid was then started and scintigraphy with organ counting was repeated at 48 h. The controls received no treatment. Significance of differences between the two groups was sought by t-test.

A further assay concerns the target T1, radiolabelled human SAP (Homo sapiens, UniProt P02743).
T1 construct: intravenous injection of ^125I-labelled pure human or mouse SAP at time zero
The experiment in a line: Plasma clearance of radiolabelled human SAP tracer in mice. Type of assay: in vivo, mouse. Here is the method:
Clearance from the amyloid deposits, catabolism and excretion of the human SAP tracer were monitored globally by whole body counting of the mice (left), and the total amount of mouse SAP in the amyloidotic organs was determined after killing the animals on day 5 (right). […] Immediately after the 15 minute bleed, two groups, one that had received human SAP and the other mouse SAP, received a single intraperitoneal injection of 5 mg of (R)-1-[6-(R)-2-Carboxy-pyrrolidin-1-yl]-6-oxo-hexanoyl]pyrrolidine-2-carboxylic acid (desapin). Tracer remaining in the circulation is expressed as the mean (SD) percentage of the amount at the 15 minute time point for each group. […] In one of each of the pairs of groups receiving mouse or human SAP respectively, the tracer had been mixed with (R)-1-[6-(R)-2-Carboxy-pyrrolidin-1-yl]-6-oxo-hexanoyl]pyrrolidine-2-carboxylic acid (desapin) and incubated in vitro before injection into the animals. Tracer remaining in the circulation is expressed as mean (SD) total radioactivity per gram of blood in each group. Bottom panel: effect of administration of (R)-1-[6-(R)-2-Carboxy-pyrrolidin-1-yl]-6-oxo-hexanoyl]pyrrolidine-2-carboxylic acid (desapin) in the drinking water at the concentrations shown, on circulating human SAP values in human SAP transgenic mice. Mice of approximately 20 g body weight consume about 3 ml water per day. […]

A further assay deals with T2, plasma SAP (Homo sapiens, UniProt P02743).
T2 construct: from tissue; host or cells: plasma of patients in vivo
In words: Intravenous infusion for 48 h in patients: plasma SAP by electroimmunoassay. In kind it is in vivo. How it is done: Patients with different forms of systemic amyloidosis, and with varying amyloid loads received the doses of the drug shown for a period of 48 h. Circulating SAP values were measured by electroimmunoassay (24) in samples taken during and after the infusion, at the times shown. Each line represents a different individual patient.
(R)-1-[6-(R)-2-Carboxy-pyrrolidin-1-yl]-6-oxo-hexanoyl]pyrrolidine-2-carboxylic acid was administered for 48 h by intravenous infusion to 8 patients with systemic amyloidosis (7 with AL and one with AA type), one patient with minor localised AL amyloidosis, and one who is a carrier of the amyloidogenic Ala60 transthyretin variant but has no clinical amyloidosis. […] In initial studies with slow continuous infusion, the SAP concentration started to fall when about 2 mg of (R)-1-[6-(R)-2-Carboxy-pyrrolidin-1-yl]-6-oxo-hexanoyl]pyrrolidine-2-carboxylic acid had been given, and in subsequent studies this amount was therefore injected as a bolus at the outset, followed by infusion at the rates shown (FIG. 4). […] However, after drug infusion had ceased, the plasma SAP concentration rapidly returned to normal in the individuals with little or no amyloid, whereas this recovery was markedly delayed in subjects with significant amyloidosis. In the one patient with a very heavy amyloid load, the plasma SAP concentration remained below 25% of its initial value 20 days after the infusion. Most of the daily production of SAP, which is about 50-100 mg per day (15), was evidently distributing into the amyloid deposits before becoming available to replete the plasma pool. This is very strong indirect evidence that even such a brief infusion of (R)-1-[6-(R)-2-Carboxy-pyrrolidin-1-yl]-6-oxo-hexanoyl]pyrrolidine-2-carboxylic acid had substantially depleted the amyloid-associated SAP.
Two individual patients with systemic amyloidosis and moderate amyloid loads received (R)-1-[6-(R)-2-Carboxy-pyrrolidin-1-yl]-6-oxo-hexanoyl]pyrrolidine-2-carboxylic acid (desapin) by intravenous infusion at the steady rates shown. Circulating SAP concentrations started to fall almost immediately and had halved when the concentrations of drug and SAP protomer were equimolar.
The potency of (R)-1-[6-(R)-2-Carboxy-pyrrolidin-1-yl]-6-oxo-hexanoyl]pyrrolidine-2-carboxylic acid in depleting circulating SAP was remarkable, with SAP values falling when the concentration ratio of drug to SAP pentamer in the plasma approached equimolar (FIG. 7). […] This is evidently the species recognised as abnormal and promptly cleared by the liver.

Where [1] appears, read: 24 h after starting infusion, second patient.
Setting [2] is: 48 h after starting infusion, second patient.
The mark [3] stands for this setting: 48 h after tracer injection (drug infusion started at 24 h), 24 h uptake = 100%, 7 patients.

T2 sequence (P02743 20-223): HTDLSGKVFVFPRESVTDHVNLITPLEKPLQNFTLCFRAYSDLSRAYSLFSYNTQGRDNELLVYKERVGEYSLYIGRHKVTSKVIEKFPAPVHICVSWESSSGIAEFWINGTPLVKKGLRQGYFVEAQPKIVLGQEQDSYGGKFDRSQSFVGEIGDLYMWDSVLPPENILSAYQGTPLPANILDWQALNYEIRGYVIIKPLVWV
123I-SAP, sequence (P02743 20-223): as above
T1 sequence (P02743 20-223): as above

As to `O=C(O)[C@H]1CCCN1C(=O)CCCCC(=O)N1CCC[C@@H]1C(=O)O` [(R)-1-[6-(R)-2-Carboxy-pyrrolidin-1-yl]-6-oxo-hexanoyl]pyrrolidine-2-carboxylic acid], the “Blood pool background of 123I-SAP tracer” value is reported as “completely absent” at 123I-SAP (6 h after starting infusion, first patient); “completely absent” on 123I-SAP (24 h and 48 h after starting infusion, second patient). The “Kidney counts, of time 0” value at 123I-SAP (setting [1]) is 77%; at 123I-SAP (setting [2]) it was 50%. Moreover, the “Spleen counts, of time 0” value on 123I-SAP (setting [1]) was 85%; on 123I-SAP (setting [2]), 54%. Also, at 123I-SAP (setting [3]), the “123I-SAP retention [mean (SD)%], Liver” value is 125 (20) %. In addition, the “123I-SAP retention [mean (SD)%], Spleen” value on 123I-SAP (setting [3]) was 54 (18) %. Moreover, on 123I-SAP (by 6 h after starting treatment and persisting thereafter), the “Blood pool signal of 123I-SAP tracer” value is given as “virtually disappeared”. Moreover, the “Plasma clearance of radiolabelled human SAP tracer” value on radiolabelled human SAP (single intraperitoneal injection of 5 mg) is listed as “accelerated”. Moreover, the “Clearance of radiolabelled human SAP preincubated with drug in vitro” value at radiolabelled human SAP (tracer preincubated with drug before intravenous injection into normal mice) is recorded as “extremely rapidly cleared”. For the same molecule, the “SAP clearance from plasma by the end of the infusion” value at plasma SAP (0.25 mg/kg/day and all higher rates up to 6 mg/kg/day) is given as “almost completely cleared”. Also, at plasma SAP (48 h intravenous infusion, all 10 subjects), the “Depletion of circulating SAP” value was “dramatic, rapid, and consistent depletion”. Further, at plasma SAP (20 days after the infusion, one patient with very heavy amyloid load), the “Plasma SAP concentration, of its initial value” was “below 25%”. Also, the SAP depletion result at plasma SAP (infusion rate 0.1 mg/kg/day) was “slower and less complete”. Moreover, at plasma SAP (slow continuous intravenous infusion), the “Amount of drug given when SAP concentration started to fall” value is given as “about 2 mg”. The “Circulating SAP concentration when drug and SAP protomer concentrations were equimolar” value on plasma SAP (two patients, 48 h intravenous infusion) is on record as “halved”.

These data come from patent US8173694B2, “Therapeutic agent” (Pentraxin Therapeutics Limited, priority 2001, dated 2012).
